Converted amounts (≈) assume the structure as drawn. Where two headings read alike, the source gives them in different places.
How the values were obtained:
[1] = tested on: L. major IR‐173 promastigotes; assay: Antipromastigote assay (resazurin); assay type: cell-based; settings: Leishmania major, read-out: Antipromastigote activity, IC50 ±SD, IR‐173
Description: (§1) Antipromastigote assay: The antipromastigote activity of synthesized compounds was evaluated as described previously by […] al.[47] using L. donovani 9515 (MHOM/IN/95/9515) and L. major IR-173 (MHOM/IR/-173). […] Al dri c h) […] The prom astigotes were […] 25 °C. […] Therm ofisher Scientific) in the presence of: […] com pounds for IC50 determination. […] blank. […] Em etine served as the standard cytotoxic drug. […] References […]

[2] = tested on: L. donovani 9515 promastigotes; assay: Antipromastigote assay (resazurin); assay type: cell-based, Leishmania donovani; settings: for IC50: Leishmania donovani, read-out: Antipromastigote activity, IC50 ±SD, 9515
Description: as §1

[3] = tested on: L. major IR‐173 amastigotes; assay: Anti‐amastigote assay, intramacrophage (THP‐1), resazurin; assay type: cell-based, Leishmania major; settings: for IC50: read-out: Anti‐amastigote activity, IC50 ±SD, IR‐173; for Selectivity index SI1: L. major IR‐173: IC50 HEK‐293/IC50 amastigote; for Selectivity index SI3: L. major IR‐173: IC50 THP‐1/IC50 amastigote; for Specificity index SpI1: L. major IR‐173: IC50 promastigote/IC50 amastigote
Description: (§2) For the anti‐amastigote assay, differentiated plates were carefully washed with PBS, followed by the addition of 200 μL of stationary phase promastigotes in RPMI 1640 medium with 2 % FBS. An MOI of 30 : 1 was used for all three Leishmania strains. […] The treated plates were incubated for 72 hours. After incubation, the plates were gently washed three times with PBS to remove any remaining extracellular parasites. The wells were then treated with 20 μL of 0.05 % sodium dodecyl sulphate in PBS for 30 seconds to lyse the host macrophages. Lysis was terminated by adding 180 μL promastigote growth medium with 10 % FBS. […] Absorbance measurements, calculations and IC50 determinations were performed as described for the antipromastigote assay (Supporting Information).

[4] = tested on: L. donovani 9515 amastigotes; assay: as above; assay type: cell-based, Leishmania donovani; settings: for IC50: Leishmania donovani, THP-1, L. donovani 9515 intramacrophage amastigotes, read-out: Anti‐amastigote activity, IC50 ±SD, 9515; for fold selective antiparasitic action against L. donovani amastigote in the presence of mammalian cells: HEK‐293 and THP‐1; for fold higher potency than the NF antibiotics: L. donovani amastigote; for fold more specificity for donovani amastigote than AMB: comparison of SpI2 values vs. AMB 0.4; for Selectivity index SI2: L. donovani 9515: IC50 HEK‐293/IC50 amastigote; for Specificity index SpI2: L. donovani 9515: IC50 promastigote/IC50 amastigote; for Selectivity index SI4: L. donovani 9515: IC50 THP‐1/IC50 amastigote
Description: as §2

[5] = Macrophage toxicity, resazurin assay; assay type: cell-based; settings: human, differentiated THP‐1 macrophages, read-out: Cytotoxicity, THP‐1, IC50±SD
Description: Macrophage toxicity: Toxicity of the compounds on the differentiated host THP‐1 cells were also evaluated. As mentioned, duplicate plates of differentiated THP‐1 cells were prepared during the anti‐amastigote assay. These plates were incubated for 72 hours to differentiate, instead of replacing the growth medium with parasite‐containing medium after 48 hours. […] Blanks were growth medium without cells. The treated plates were incubated for 72 hours, followed by the addition of 50 μL of resazurin solution (0.01 % in PBS) to each well and 24‐hour incubation.

[6] = Basal cytotoxicity, resazurin assay; settings: human
[7] = tested on: HEK‐293 cells; assay: Basal cytotoxicity, resazurin assay; settings: read-out: Cytotoxicity, HEK‐293, IC50±SD; HEK‐293 cells, resazurin
[8] = in vitro; settings: human, Cytotoxicity, HEK‐293, IC50±SD
[9] = cited from earlier work
[10] = during therapy ref 19; cited from earlier work
[11] = Leishmania major, THP-1, L. major IR‐173 intramacrophage amastigotes
[12] = differentiated THP-1 cells (macrophages)
[13] = HEK-293 cells (ATCC CRL 1573), Cytotoxicity, HEK‐293, IC50±SD, HEK‐293 cells, resazurin
[14] = L. major IR‐173 intramacrophage amastigotes

Compound | IC50 [1] [µM] | IC50 [2] [µM] | IC50 [3, 11] [µM] | IC50 [4] [µM] | IC50 at 72 h [5, 12] [µM] | IC50 [6, 13] [µM] | Selectivity index SI4 [4] | other results
C[C@@H]1[C@H](O)[C@@H](C)/C=C/C=C/C=C/C=C/C=C/C=C/C=C/[C@H](O[C@@H]2O[C@H](C)[C@@H](O)[C@H](N)[C@@H]2O)C[C@@H]2O[C@](O)(C[C@@H](O)C[C@@H](O)[C@H](O)CC[C@@H](O)C[C@@H](O)CC(=O)O[C@H]1C)C[C@H](O)[C@H]2C(=O)O [AMB, amphotericin B, reference compound] | 0.03 ± 0.01 | 0.02 | 0.03 | 0.05 |  |  |  | 
C#CCN1C(=O)CN(/N=C/c2ccc([N+](=O)[O-])o2)C1=O [Compound 1] | 0.51 ± 0.05 |  |  |  | 99.94 ± 0.09 |  |  | fold selective antiparasitic action against L. donovani amastigote in the presence of mammalian cells [4]: more than 100 fold; fold higher potency than the NF antibiotics [4]: up to 30 fold; fold more specificity for donovani amastigote than AMB [4]: 20 fold
CCCCCn1cc(CN2C(=O)CN(/N=C/c3ccc([N+](=O)[O-])o3)C2=O)nn1 [Compound 2] | 0.09 |  |  |  | > 100 | > 100 |  | 
CCCCCCn1cc(CN2C(=O)CN(/N=C/c3ccc([N+](=O)[O-])o3)C2=O)nn1 [Compound 3] | 0.48 ± 0.02 |  |  |  |  | 17.9 ± 1.3 |  | 
CCCCCCCn1cc(CN2C(=O)CN(/N=C/c3ccc([N+](=O)[O-])o3)C2=O)nn1 [Compound 4] | 6.85 ± 0.44 | 0.18 ± 0.05 |  |  | > 100 | > 100 |  | fold selective antiparasitic action against L. donovani amastigote in the presence of mammalian cells [4]: more than 100 fold; fold higher potency than the NF antibiotics [4]: up to 30 fold
CCCCCCCCn1cc(CN2C(=O)CN(/N=C/c3ccc([N+](=O)[O-])o3)C2=O)nn1 [Compound 5] | 0.27 ± 0.02 |  |  |  |  | 31.9 ± 3.55 |  | 
CCCCCCCCCn1cc(CN2C(=O)CN(/N=C/c3ccc([N+](=O)[O-])o3)C2=O)nn1 [Compound 6] | 6.51 ± 1.13 | 4.68 ± 0.32 |  |  | > 100 | 43.8 ± 4.13 |  | Selectivity index SI2 [4]: 12; Specificity index SpI2 [4]: 1.3; fold more specificity for donovani amastigote than AMB [4]: 3 fold
CCCCCCCCCCn1cc(CN2C(=O)CN(/N=C/c3ccc([N+](=O)[O-])o3)C2=O)nn1 [Compound 7] | 0.34 ± 0.02 |  | < 10 | 6.17 ± 0.47 | > 100 | 67.1 ± 5.22 | > 16 | Antipromastigote activity, IC50 ±SD, 9515 [2]: inactive; Selectivity index SI1 [3]: 10; Selectivity index SI3 [3]: > 15; IC50 [3, 14]: 6.72 µM; Selectivity index SI2 [4]: 11
CCCCCCCCCCCn1cc(CN2C(=O)CN(/N=C/c3ccc([N+](=O)[O-])o3)C2=O)nn1 [Compound 8] | 1.24 ± 0.13 | 1.6 ± 0.08 |  | 4.49 | > 100 | 20.3 ± 3.15 | > 22 | Selectivity index SI2 [4]: 5; Specificity index SpI2 [4]: 0.4
CCCCCCCCCCCCn1cc(CN2C(=O)CN(/N=C/c3ccc([N+](=O)[O-])o3)C2=O)nn1 [Compound 9] | 0.38 ± 0.01 |  |  |  | > 100 |  |  | 
O=C1CN(/N=C/c2ccc([N+](=O)[O-])o2)C(=O)N1Cc1cn(CCc2ccc([N+](=O)[O-])cc2)nn1 [Compound 10] | 0.17 |  |  |  |  |  |  | IC50 at 72 h [5]: > 100 µM; IC50 [6]: 43.7 ± 3.37 µM
O=C1CN(/N=C/c2ccc([N+](=O)[O-])o2)C(=O)N1Cc1cn(Cc2ccccc2)nn1 [Compound 11] | 0.68 ± 0.13 |  |  |  |  | 21 ± 3.25 |  | 
Cc1ccc(Cn2cc(CN3C(=O)CN(/N=C/c4ccc([N+](=O)[O-])o4)C3=O)nn2)cc1 [Compound 12] | 0.34 ± 0.11 |  |  |  |  | 41.8 ± 1.21 |  | 
CC(C)c1ccc(Cn2cc(CN3C(=O)CN(/N=C/c4ccc([N+](=O)[O-])o4)C3=O)nn2)cc1 [Compound 13] | 0.57 ± 0.01 |  |  | 9.13 | > 100 | < 10 | > 11 | Antipromastigote activity, IC50 ±SD, 9515 [2]: inactive; Selectivity index SI2 [4]: 1; IC50 [7]: 7.27 ± 0.93 µM
CC(C)(C)c1ccc(Cn2cc(CN3C(=O)CN(/N=C/c4ccc([N+](=O)[O-])o4)C3=O)nn2)cc1 [Compound 14] | 0.45 ± 0.1 |  |  | 1.16 ± 0.02 | > 100 | 23.2 ± 2.77 | > 86 | Antipromastigote activity, IC50 ±SD, 9515 [2]: inactive; Selectivity index SI2 [4]: 20
O=C1CN(/N=C/c2ccc([N+](=O)[O-])o2)C(=O)N1Cc1cn(Cc2ccc(Br)cc2)nn1 [Compound 15] | 0.5 ± 0.03 | 7.59 ± 0.56 | 5.14 ± 0.67 |  | > 100 | 32.7 ± 4.19 |  | Selectivity index SI1 [3]: 6; Selectivity index SI3 [3]: > 19; Specificity index SpI1 [3]: 0.1
O=C1CN(/N=C/c2ccc([N+](=O)[O-])o2)C(=O)N1Cc1cn(Cc2ccc(Br)cc2F)nn1 [Compound 16] | 0.19 ± 0.01 |  | < 10 | 9.21 | 55.7 ± 1.17 | 14.4 ± 0.84 | 6 | Selectivity index SI3 [3]: 9; Specificity index SpI1 [3]: 0.5; IC50 [3, 14]: 6.42 ± 0.38 µM; Selectivity index SI2 [4]: 2
O=C1CN(/N=C/c2ccc([N+](=O)[O-])o2)C(=O)N1Cc1cn(Cc2ccc(F)cc2)nn1 [Compound 17] | 1.05 ± 0.07 |  |  |  |  | 48.4 ± 1.88 |  | 
O=C1CN(/N=C/c2ccc([N+](=O)[O-])o2)C(=O)N1Cc1cn(Cc2ccc([N+](=O)[O-])cc2)nn1 [Compound 18] | 0.38 |  |  |  |  |  |  | IC50 [6]: 60.2 ± 2.29 µM
O=C1CN(/N=C/c2ccc([N+](=O)[O-])o2)C(=O)N1Cc1cn(Cc2cccc(Br)c2)nn1 [Compound 19] | 0.48 | 1.75 ± 0.11 |  |  |  | 12.6 ± 0.46 |  | 
O=C1CN(/N=C/c2ccc([N+](=O)[O-])o2)C(=O)N1Cc1cn(Cc2cccc(C(F)(F)F)c2)nn1 [Compound 20] | 0.13 ± 0.02 |  |  |  |  | 15.8 ± 3.69 |  | 
CC[C@H]1CN2CCc3cc(OC)c(OC)cc3[C@@H]2C[C@@H]1C[C@H]1NCCc2cc(OC)c(OC)cc21 [EM, Emetine, reference compound] |  |  |  |  |  | 0.01 |  | 
O=C1OCCN1/N=C/c1ccc([N+](=O)[O-])o1 [FZD, furazolidone, reference compound] | 0.37 ± 0.02 | 0.57 ± 0.05 | 2.8 ± 0.5 | 4.11 ± 0.78 |  |  |  | 
O=C1CN(/N=C/c2ccc([N+](=O)[O-])o2)C(=O)N1 [NFT, nitrofurantoin, reference compound] | > 10 | > 10 | > 10 | 9.92 ± 0.11 | > 100 |  | > 10 | IC50 [8]: > 100 µM; solubility in DMF ([9]; DMF): 50 mg/mL (≈ 210 mM); solubility in DMSO ([9]; DMSO): 25 mg/mL (≈ 105 mM); solubility in water ([9]; water ref 26): 0.19 mg/mL (≈ 0.798 mM); excreted unchanged [10]: 33%
O=C(N/N=C/c1ccc([N+](=O)[O-])o1)c1ccc(O)cc1 [NFX, nifuroxazide, reference compound] | > 10 | 4.48 ± 0.1 | > 10 | 7.29 ± 0.39 | > 100 |  | > 14 | Specificity index SpI2 [4]: 0.6; IC50 [8]: > 100 µM
NC(=O)N/N=C/c1ccc([N+](=O)[O-])o1 [NFZ, nitrofurazone, reference compound] | 1.22 ± 0.03 | 1.82 ± 0.03 | 5.75 ± 0.75 | 4.94 ± 0.61 | > 100 | > 100 | > 20 | Selectivity index SI3 [3]: > 17; Specificity index SpI1 [3]: 0.2; Specificity index SpI2 [4]: 0.4

Reference: PMC9322565 (Chemmedchem, 2022)
